# Values of other authors as cited in patent publication US20210356455A1, “SCREENING AGENTS CAPABLE OF INHIBITING PAIN AND/OR PRURITUS AND METHODS AND COMPOSITIONS FOR TREATING PAIN AND/OR PRURITUS USING SAID AGENTS” (President and Fellows of Harvard College, priority 2020, published 2021).
# What was measured:
# [1] = biological target: T1, Mrgpra3 (Mas-related G-protein coupled receptor member A3) (Mus musculus, UniProt Q91WW3)
# T1 sequence (Q91WW3 1-302): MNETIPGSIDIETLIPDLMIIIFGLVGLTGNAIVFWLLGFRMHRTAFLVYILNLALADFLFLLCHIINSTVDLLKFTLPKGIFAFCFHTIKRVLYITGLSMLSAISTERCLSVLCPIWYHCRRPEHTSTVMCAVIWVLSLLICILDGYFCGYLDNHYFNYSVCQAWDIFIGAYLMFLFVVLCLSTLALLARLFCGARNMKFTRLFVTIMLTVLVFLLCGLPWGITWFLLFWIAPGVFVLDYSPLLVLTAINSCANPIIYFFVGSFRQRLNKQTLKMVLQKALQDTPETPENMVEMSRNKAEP
# [2] = biological target: T2, Mrgprd (MAS Related GPR Family Member D) (Homo sapiens, UniProt Q8TDS7); conditions: micromolar doses; cells expressing the receptor
# T2 sequence (Q8TDS7 whole entry, species assumed): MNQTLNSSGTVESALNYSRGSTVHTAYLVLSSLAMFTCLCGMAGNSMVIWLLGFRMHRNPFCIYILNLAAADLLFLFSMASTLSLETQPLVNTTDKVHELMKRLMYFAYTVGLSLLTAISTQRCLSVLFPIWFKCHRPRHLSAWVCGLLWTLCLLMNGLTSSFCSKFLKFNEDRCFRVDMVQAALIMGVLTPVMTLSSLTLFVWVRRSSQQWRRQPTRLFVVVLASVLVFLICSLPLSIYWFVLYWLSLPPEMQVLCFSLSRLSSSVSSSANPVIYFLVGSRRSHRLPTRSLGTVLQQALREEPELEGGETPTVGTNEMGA
# [3] = biological target: T2, Mrgprd (MAS Related GPR Family Member D); conditions: cells expressing the receptor
# [4] = biological target: Ntsr2 (Neurotensin Receptor 2) (Homo sapiens, UniProt O95665); conditions: binding and pharmacological studies
# Ntsr2 (Neurotensin Receptor 2), sequence (O95665 whole entry, species assumed): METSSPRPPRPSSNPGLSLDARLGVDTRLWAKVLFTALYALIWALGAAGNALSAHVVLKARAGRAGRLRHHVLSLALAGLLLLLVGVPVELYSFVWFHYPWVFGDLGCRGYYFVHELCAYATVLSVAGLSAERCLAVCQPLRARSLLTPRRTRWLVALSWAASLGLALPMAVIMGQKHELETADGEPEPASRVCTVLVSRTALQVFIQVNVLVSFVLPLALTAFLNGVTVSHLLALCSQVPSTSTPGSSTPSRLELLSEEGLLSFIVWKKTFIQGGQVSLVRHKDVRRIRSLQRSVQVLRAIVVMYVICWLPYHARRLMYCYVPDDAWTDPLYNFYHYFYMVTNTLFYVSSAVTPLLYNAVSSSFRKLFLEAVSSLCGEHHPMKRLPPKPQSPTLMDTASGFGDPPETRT
smiles,measurement,setting,value
CCN(CC)CCCC(C)Nc1ccnc2cc(Cl)ccc12 (stereo not shown) [chloroquine],receptor activation,[1],Activated
"NCCC(=O)O [Beta-alanine, beta-alanine]",Ca(2+) influx,[2],specifically evoked Ca(2+) influx
same,forskolin-stimulated cAMP production,[3],decreases forskolin-stimulated cAMP production
C[C@@H]1CN([C@H]2CC[C@](C#N)(c3ccc(F)cc3)CC2)CC[C@]1(C(=O)O)c1ccccc1 [levocabastine],affinity for the receptor,[4],high affinity
